Laboratory results reported in patent publication US9610320B2, “Surgical applications for BMP binding protein” (THE REGENTS OF THE UNIVERSITY OF CALIFORNIA, priority 2004, dated 2017).
Entries after “also recorded” stand apart in the source; their conditions may differ.

Assays:
Lewis rats [1] = assay: Rat posterolateral intertransverse process spinal fusion L4-L5 (Example 7); type: in vivo; settings: week 8
Method: Methods: Five groups of 50 Lewis rats each underwent posterolateral intertransverse process spinal fusion at vertebrae L4-L5 with implanted: BBP (500 μg) (Group 1); BBP (1000 μg) (Group 2), collagen plus low dose BMP-2 (1 μg) (Group 3), BBP (500 μg) plus low dose BMP (1 μg) (Group 4) and BBP (1000 μg) plus low dose BMP (1 μg) (Group 5). Control groups included a negative group (decortication) and positive control group (collagen plus 3 μg BMP).
All rats underwent post-operative radiography at 2, 4, 6, and 8 weeks. Manual spinal palpation was performed at 8 weeks, after the time of sacrifice. Bone formation was assessed in histological sections stained with H&E.

rhBMP-2 [2] = target: T1, rhBMP-2 (Homo sapiens, UniProt P12643); assay: Residence time study: BBP and rhBMP-2 on collagen sponges in muscle pouches; type: in vivo, rodents
T1 sequence (P12643 283-396): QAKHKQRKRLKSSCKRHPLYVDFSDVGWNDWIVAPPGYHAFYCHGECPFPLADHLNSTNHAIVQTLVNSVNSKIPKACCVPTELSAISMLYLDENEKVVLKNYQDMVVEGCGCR
From the text: Methods: Labeled rhBMP-2 was mixed with BBP or vehicle and applied to collagen sponges. The sponges were implanted into muscle pouches in rodents. At specified times (1, 3 and 7 days), the implants were removed and the amount of BMP remaining determined. Four animals were used in each group.

rhBMP-2 [3] = target: T1, rhBMP-2; assay: Surface plasmon resonance, interaction of rhBMP-2 and BBP; type: binding; settings: BBP decyclized by prior reduction with β-mercaptoethanol
Method: Buffers and chips for the procedure were obtained from Biacore. […] This material was then attached to a CM-5 sensor chip using reagents and procedures supplied by the manufacturer. Running butter was 10 mM HEPES, pH 7.4, 150 mM NaCl, 3 mM EDTA, 0.005% Surfactant P20, The peptide was dissolved in running buffer at concentrations ranging from 1×10^−5 to 1×10^−4 M. Flow rates from 5 to 50 μl/mm and injection volumes of 20 to 100 μl were employed. The regeneration solution was […] glycine-HCl, pH 2.0.

Lewis rats [4] = assay: Rat posterolateral intertransverse process spinal fusion L4-L5 (Example 8); type: in vivo; settings: for Histology, fused / Manual Palpation, fused: 8th week
Method: Methods: Posterolateral intertransverse process spinal fusion at L4-L5 was performed in five treatment groups of Lewis rats each, and collagen sponges (5×5×13 mm) were implanted into the surgical sites.
Each sponge was placed in a sterile microfuge tube and either a suspension of BBP (500 μg or 1000 μg) in water or sterile water alone was applied. The sponges were allowed to air dry in a tissue culture hood overnight and then placed at −70° C. for an hour and lyophilized overnight. The tubes (with small holes in the top to allow for lyophilization) were placed in autoclave pouches and sealed. The materials were then sterilized by exposure to chloroform vapor for at least 4 hours.
The posterolateral intertransverse process spinal fusion at L4-L5 in the rat is a well established procedure in our laboratory 13-17. Briefly, the animal was anesthetized with isofluane and the surgical site was shaved and propped with Betadyne and alcohol. A 3 cm longitudinal midline incision was made through the skin and subcutaneous tissue over L4-L5 down to the lumbodorsal fascia. Then, two separate 2 cm longitudinal paramedial incisions were made in the erector spinae muscles on both sides of L4-L5. The transverse processes of L4-L5 were exposed, cleaned of soft tissue, and decorticated with a high-speed burr. The site was irrigated with saline and the therapeutic test material was placed. The lumbodorsal fascia was closed with 4-0 Prolene (Ethicon, Somerville, N.J.). The skin was closed with 4-0 Prolene and meticulous post-operative care was provided.
These were compared to control groups. Fusion was evaluated by radiology, histology and manual palpation tests. Animals were sacrificed 8 weeks after surgery.
The results of the surgeries were assessed radiologically, histologically, and by manual palpation. Posteroanterior radiographs were obtained using a small parts X-ray cabinet (Faxitron Corp., Wheeling, Ill.) on each animal at 2, 4, 6 and 8 weeks. Radiograms were evaluated by three independent observers employing the following standardized scale: 0: no fusion; 1: incomplete fusion with bone formation present; and 2: complete fusion. The scores from the three observes were added and a total of 5 or 6 was regarded as “fused”. Manual palpation of the spine was performed at the time of sacrifice at 8 weeks. To simulate the gold standard for determining fusion in humans, exploration and manual palpation of the fusion mass were performed after death. The level fused was manually palpated with Adson forceps and compared with the adjacent nonfused levels. Each specimen was graded as fused or non-fused by three independent observers. The spine was designated as “not fused” if any of the three observers graded the spine as not fused. After manual palpation, the specimens were decalcified using standard 10% decalcifying solution HCl (Cal-Ex, Fisher Scientific, Fairlawn, N.J.), washed with running tap water, then transferred to 75% ethanol. Sagittal sections were cut carefully at the level of the transverse process. The specimens were imbedded in paraffin and sections of each specimen obtained. These sections were stained with hematoxylin and eosin. They were evaluated by an independent observer as fused and not fused.
The proportions of subjects in each group judged to be “fused” were compared in sequential two group comparisons with Fisher's exact test using SPSS software. A p score of less than or equal to 0.05 was set for statistical significance.

Lewis rats [5] = assay: Rat posterolateral intertransverse process spinal fusion L4-L5 (Example 6); type: in vivo; settings: Group 1: BBP 500 μg only, week 8
Method: All rats underwent post-operative radiography at 2, 4, 6, and 8 weeks. Manual spinal palpation was performed at 8 weeks, the time of sacrifice. Bone formation was assessed in histological sections stained with H&E.

male Swiss-Weber mice = assay: Mouse hindquarter (muscle pouch) ectopic bone formation assay, BBP; type: in vivo; settings: for Bone Area / Bone Mineral Content: densitometry
Method: Methods: The osteogenic activity of material was tested using male Swiss-Weber mice aged 8 to 10 weeks were used (Taconic Farms, Germantown, N.Y.). Prior to the assay, the BBP was solublized and lyophilized into 2 mg of atelocollagen. The dried material was placed in a #5 gelatin capsule and sterilized by exposure to chloroform vapor. To conduct the assay, mice were anesthetized using 1% isoflurane delivered in oxygen at 2 l/min through a small animal anesthesia machine (VetEquip, Pleasanton, Calif.). Animals were affixed to a surgery board and the fur over the hindquarters shaved. The skin was cleaned with 70% ethanol and a midline incision made over the spine adjacent to the hindquarters. Blunt dissection with scissors was used to expose the quadriceps muscle on one side. A small pouch was made in the muscle using the point of scissors and the #5 capsule containing the test material was inserted into the pouch. The skin was then closed with three 11 mm Michel surgical clips and the animal returned to its cage for monitoring.
After 21 days the animals were killed and the hindquarter removed. Radiological examination of the specimens was accomplished using a small parts X-Ray cabinet (Faxitron, Wheeling, Ill.). For quantization of bone formation, bone area and the bone mineral content (BMC) of an area of interest encompassing the site of ectopic bone formation was determined using a PIXImus2 small animal densitometer (GE Lunar, Madison, Wis.). Specimens were then placed in buffered formalin and submitted for routine processing for histological examination.

[6] = BBP 50 μg implanted with 5 μg rhBMP-2, 21 days
[7] = BBP 500 μg implanted with 5 μg rhBMP-2, 21 days

SMILES: CSCC[C@@H]1NC(=O)[C@H](CCCNC(=N)N)NC(=O)[C@H](C(C)C)NC(=O)[C@H]([C@@H](C)O)NC(=O)[C@H](CO)NC(=O)[C@H](CCCNC(=N)N)NC(=O)[C@@H](N)CSSC[C@@H](C(=O)O)NC(=O)[C@H](CCCNC(=N)N)NC(=O)[C@H](C(C)C)NC(=O)[C@H](Cc2c[nH]c3ccccc23)NC(=O)[C@H](C(C)C)NC(=O)[C@H](CC(N)=O)NC(=O)[C@H](CCC(N)=O)NC(=O)[C@H](C(C)C)NC(=O)[C@H](CCC(N)=O)NC(=O)[C@H](CCC(=O)O)NC(=O)[C@H](C)NC(=O)[C@H](CO)NC1=O [BBP]
- fusion by manual palpation (Lewis rats [1]; Group 1: BBP 500 μg only): 0%
- fusion by manual palpation (Lewis rats [1]; Group 2: BBP 1000 μg only): 0%
- increase of rhBMP-2 retention (factor) (rhBMP-2 [2]; collagen sponges in muscle pouches, 1, 3 and 7 days, versus vehicle): about two
- retention of rhBMP-2 (fold) (rhBMP-2 [2]; for up to seven days in vitro and in vivo): two
- binding to rhBMP-2 (rhBMP-2 [3]): no significant binding
- fusion with BBP alone (Lewis rats [4]; 500 μg or 1000 μg BBP alone, any time point): none of the animals in low and high dose BBP groups developed fusion at any time points; also recorded: did not provide fusion
- radiological examination, fused, Week 2nd (Lewis rats [4]; high dose BBP only (1000 μg)): 0%
- radiological examination, fused, Week 4th (Lewis rats [4]; high dose BBP only (1000 μg)): 0%
- radiological examination, fused, Week 6th (Lewis rats [4]; high dose BBP only (1000 μg)): 0%
- radiological examination, fused, Week 8th (Lewis rats [4]; high dose BBP only (1000 μg)): 0%
- Histology, fused (Lewis rats [4]; high dose BBP only (1000 μg)): 0%
- Manual Palpation, fused (Lewis rats [4]; high dose BBP only (1000 μg)): 0%
- radiological examination, fused, Week 2nd (Lewis rats [4]; low dose BBP only (500 μg)): 0%
- radiological examination, fused, Week 4th (Lewis rats [4]; low dose BBP only (500 μg)): 0%
- radiological examination, fused, Week 6th (Lewis rats [4]; low dose BBP only (500 μg)): 0%
- radiological examination, fused, Week 8th (Lewis rats [4]; low dose BBP only (500 μg)): 0%
- Histology, fused (Lewis rats [4]; low dose BBP only (500 μg)): 0%
- Manual Palpation, fused (Lewis rats [4]; low dose BBP only (500 μg)): 0%
- Fusion Rates (Lewis rats [5]): 14%
- calcification after implantation of BBP alone (male Swiss-Weber mice; 500 μg BBP in atelocollagen, mouse muscle, 21 days, radiogram/histology): induced calcification; also recorded: dystrophic calcification primarily associated with intramuscular adipose tissue; also recorded: ectopic dystrophic calcification formation
- amount of ectopic bone formed versus rhBMP-2 alone (male Swiss-Weber mice; 500 μg BBP with 5 μg rhBMP-2, densitometry): consistently greater
- Bone Area (male Swiss-Weber mice; [6]): 0.159 ± 0.0606 cm^2
- Bone Mineral Content (male Swiss-Weber mice; [6]): 0.00388 ± 0.0017 g
- Bone Area (male Swiss-Weber mice; [7]): 0.226 ± 0.0270 cm^2
- Bone Mineral Content (male Swiss-Weber mice; [7]): 0.00528 ± 0.00068 g
